Reference: patent publication US20170332910A1, “MODIFIED PARAMAGNETIC NANOPARTICLES FOR TARGETED DELIVERY OF THERAPEUTICS AND METHODS THEREOF” (ALBERT EINSTEIN COLLEGE OF MEDICINE, INC., priority 2014, published 2017)

What was measured:
MDA-MB-436 = experiment: Tumor necrosis in MDA-MB-436 xenografts; format: in vivo, mouse; conditions: 1.0 mg/kg
[1] = system: xenografted human breast cancer; experiment: ADM-PMNP plus magnetic field on xenografted human breast cancer (bioluminescence); format: in vivo, mouse; conditions: comparable amount of free drug
Procedure: FIG. 8 Anti-tumor effect of IV infused Adriamycin loaded PMNP (ADM-PMNP) plus magnetic field treatment on xenografted human breast cancer. Human breast cancer was s.c. xenografted in a female nude mouse. The mouse was injected with 1 mg/kg ADM-PMNP and the tumor was treated with magnetic field for 30 minutes following each injection The mouse was imaged before and after the treatment, the luminescent signals were quantitatively analyzed for change of tumor size. At the end of the treatment, there was a >80% decrease of luminescent signaling in the tumor. The signal recovered partially 3 days after the treatment was ended.
Signal intensity in treated tumor was similar to that in bladder, a major route of PMNP elimination. Next, to assess drug delivery and anti-tumor efficacy, MoB-1833 mammary xenografted tumor-bearing mice were infused with ADM-coated PMNP (ADM-PMNP). ADM use in chemotherapy is limited due to systemic toxicity and it is therefore an excellent model drug for evaluation of the potentially utility of our PMNP platform. […] This ADM dose is 5-20 times lower than doses of free ADM commonly used for in animal studies and similar to doses used clinically. The 4-day treatment achieved a 9-fold reduction in tumor mass (FIG. 8). Tumor rebound upon drug termination confirmed specificity of the drug effect. […] The necrosis was confirmed histologically (FIG. 9Bd-f). […]

[2] = Histopathological analysis of multiple tissues (toxicity); format: in vivo, mouse; conditions: 1 mg/kg
Procedure: FIGS. 11(A-B). Systemic effect of the treatment. (A) Representative H&E staining of tissue sections from ADM-PMNP injected mice (1 mg/kg BW)(A). (B) inflammation and hyperplasia were found in colon from mice treated with free ADM (B-left) but not in mice injected with the same dose of ADM-PMNP (B-right).

[3] = system: human glioblastoma (GBM43); experiment: LPS-PMNPs and oral temozolomide, survival and drug delivery; format: in vivo, mouse; conditions: oral 20 mg/kg after LPS-PMNP with magnetic field; relative to groups 1-3
Procedure: In this study, human glioblastoma (GBM43) were again maintained as subcutaneous xenografts. The tumor cells from subcutaneous xenografts were transfer to the intracranial compartment. Cells were suspended in DMEM media at 1×10^5 cells/μL for intracranial injection. 3 μL of tumor cell suspension (3×10^5 cells total) were injected into the right caudate putamen of 6 week-old female athymic mice (nu/nu). Prior to injection, the mice were anesthetized IP (intraperitoneal injection) (ketamine/xylazine). PMNPs (10 mg/kg) with and without LPS were administered via tail vein. 6 hours after administration of PMNPs, 20 mg/kg temozolomide (TMZ) was administrated as oral suspension in a vehicle containing 2.5 mg/ml Povidone K30, 0.015% citric acid, 50% Ora-Plus, 50% Ora-Sweet SF (Paddock Labs Minneapolis, Minn.) on days 12, 18, 24, and 30. The treatment groups were: 1) control (no TMZ); 2) TMZ alone; 3) LPS-PMNP plus TMZ (without magnetic field); and 4) LPS-PMNP plus TMZ with magnetic field (strong localized magnetic field applied to tumor area). The mice were euthanized as the symptoms from the increasing tumor burden prevented access to food/water.

[4] = system: U87 human glioblastoma cells; experiment: Cell viability assay (Presto Blue); format: cell-based; conditions: 48 h incubation
Procedure: FIG. 22 Cytotoxicity of naked curcumin, curcumin conjugated PMNPs and Sol-Gel Nps and blanks (without curcumin) performed on U87 human glioblastoma cells after 48 hours of incubation. Note that 1 μM equivalent curcumin concentration corresponds to 16.7 μg/mL of nanoparticles. […] The data represents the mean±SE, n=3 to 18.
Cells were plated in 24-well trays and allowed to become confluent then incubated with naked curcumin or different curcumin NP concentrations for 48 h. Cell viability was quantified using Presto Blue (Invitrogen) an assay that contains a cell permeable resazurin-based solution that is modified by the reducing environment of the viable cell becoming highly fluorescent. Using a plate reader, cell viability was quantified after 0.5-1 hours of incubation with Presto Blue. All measurements were always accompanied by control wells and by calibration wells to account for background fluorescence using the same culture media and the same NP concentrations without the cells.
U-87 used as an vitro model of human glioblastoma were incubated with either Curcumin or Curcumin loaded NPs.

[5] = system: human breast cancer xenographs; experiment: MRI of magnetic field induced localization of gadolinium oxide based PMNPs; format: in vivo, mouse
Procedure: FIGS. 3(A-D). […] By applying a magnet field for 30 minutes at hind end (blue arrows), the enhanced image of hind-end tumor is observed (3B). The enhanced image of the tumor persists for at least several hours. […] The PMNPs are concentrated at site of a lower abdominal mammary tumor (FIG. 3C) using an external magnetic field placed over the tumor for 30 minutes. […] Imaging was performed over several hours without taking the mouse out of MRI machine thereby maintaining all of the imaging parameters.
FIGS. 4(A-B). Compares the MRI contrast data between […] (gadopentetate dimeglumine) and gadolinium oxide-based PMNPs.
In FIG. 3 are presented results on magnetic immobilization of gadolinium-based PMNPs in a mouse with numerous human breast cancer xenographs. There is no image enhancement for any of the multiple tumors located in different parts of the mouse including one at hind end (green-arrow at bottom of the picture marked tumor). The mouse was then removed and then subjected to thirty minutes of having a magnetic field placed over the tumor demarked by the green arrow. […] The intensity of MRI signal is very similar at both tumor and bladder. This is very different than observed in case of […] where there is a transient image of the bladder and no site specific localization of the contrast agent in any one of the tumors. […]

[6] = system: human glioblastoma (GBM43); experiment: Effect of LPS-PMNPs on delivery of irinotecan, intracranial glioblastoma; format: in vivo, mouse; conditions: LPS-PMNP plus magnetic field vs groups 1 and 2, 24 hours after dose on day 18
Procedure: In this study, human glioblastoma (GBM43) were maintained as subcutaneous xenografts. The tumor cells from subcutaneous xenografts were transfer to the intracranial compartment. Cells were suspended in DMEM media at 1×10^5 cells/μL for intracranial injection. 3 μL of tumor cell suspension (3×10^5 cells total) were injected into the right caudate putamen of 6 week-old female athymic mice (nu/nu). Prior to injection, the mice were anesthetized IP (intraperitoneal injection) (ketamine/xylazine). 0.4 mg of irinotecan was administrated via tail vein to each mouse on day 12 after implantation of tumor cells, and repeated at days 18, 24, and 30. LPS-PMNPs were administered via tail vein 4 hours prior to administration of irinotecan. All treatment groups received treatment with irinotecan. The treatment groups were: 1) control (without LPS-PMNP treatment); 2) LPS-PMNP (LPS-PMNP treatment without magnetic field); and 3) LPS-PMNP with magnetic field (strong localized magnetic field applied to tumor area). For group 3, the strong localized magnetic field was applied to the tumor cranial area using a conical magnet. […]
The irinotecan content in the brain and the tumor from a mouse in each group was also determined. […] Irinotecan levels in the tumor tissues were measured from homogenized tissues in acidic methanol solution, and measured using an HPLC (eluted peaks, 380/540 nm). […]

[7] = system: TNFα, TGBβ, MCP-1, IL-1α, IL-1β, IL-6, IL-10, and IL-12; experiment: Time-dependent cytokine levels (systemic inflammation); format: in vivo, mice
Procedure: This study monitored the time-dependent changes in various cytokine levels (TNFα, TGBβ, MCP-1, IL-1α, IL-1β, IL-6, IL-10, and IL-12) for LPS-PMNPs (10 mg/kg) in mice with and without magnetic field (i.e., treatment with or without a localized magnet) as compared with free LPS introduced at 10 mg/kg and 2 mg/kg—a lower concentration than for the LPS carried on the PMNPs. The cytokine levels for each group were measured over a 24-hour period, with measurements at baseline, 1 hour, 6 hours, and 24 hours. The four comparison groups were: A) LPS-PMNP (10 mg/kg) without magnetic field; B) LPS-PMNP (10 mg/kg) with magnetic field; C) free LPS (2 mg/kg); and D) free LPS (10 mg/kg).

## COc1cccc2c1C(=O)c1c(O)c3c(c(O)c1C2=O)C[C@@](O)(C(=O)CO)C[C@@H]3O[C@H]1C[C@H](N)[C@H](O)[C@H](C)O1 [Adriamycin, Adriamycin (doxorubicin)]
MDA-MB-436
  tumor necrosis: smaller necrotic lesions
[1]
  anti-tumor effect: relatively ineffective
[2]
  histopathological findings: colonic inflammation and hyperplasia

## Cn1nnc2c(C(N)=O)ncn2c1=O [TMZ, temozolomide]
[3]
  TMZ content in the tumor: greater TMZ content in the tumor

## COc1cc(/C=C/C(=O)CC(=O)/C=C/c2ccc(O)c(OC)c2)ccc1O [curcumin, Curcumin]
[4]
  equivalent curcumin concentration able to significantly decrease cell viability by 20%: 5 µM

## CNC[C@H](O)[C@@H](O)[C@H](O)[C@H](O)CO.CNC[C@H](O)[C@@H](O)[C@H](O)[C@H](O)CO.O=C([O-])CN(CCN(CC(=O)[O-])CC(=O)O)CCN(CC(=O)[O-])CC(=O)O.[Gd+3] [gadopentetate dimeglumine]
[5]; mouse, in vivo
  persistence of MRI contrast: short lived
[5]; within a short time, no magnetic field
  distribution of contrast agent (MRI): concentrates in the bladder

## CCc1c2c(nc3ccc(OC(=O)N4CCC(N5CCCCC5)CC4)cc13)-c1cc3c(c(=O)n1C2)COC(=O)[C@]3(O)CC [irinotecan]
[6]
  irinotecan content in the brain: higher
[6]; HPLC
  irinotecan content in the tumor: significantly higher

## lipopolysaccharides [free LPS]
[7]; 2 mg/kg, compared with LPS-PMNP (10 mg/kg)
  acute inflammation: substantially greater
[7]; 10 mg/kg
  inflammation over time: produced endotoxemia
